The text below walks through data of patent US20070299029A1, “Hepatic stellate cell specific promoter and uses thereof” (Agency for Science, Technology and Research, priority 2005, published 2007).

For data set [1], the system named is endogenous rat GFAP mRNA. Nature of the data set: real-time RT-PCR for endogenous rat GFAP mRNA in T6/lacZ/C1 cells. The class given is cell-based. The protocol:
(§1) Cells were seeded into 12-well plates in full DMEM and 500 μg/ml Zeocin. Twelve hours prior to the cytokine treatment, medium was changed so that the cells were allowed to grow in low serum (0.5% FBS) DMEM. The cells at a confluence of 70-80% were incubated with various concentrations (0, 0.1, 1 and 10 ng/ml) of recombinant human TGF-β1, PDGF-BB (BioVision, CA, USA) and 0, 0.1, 1 and 10 μg/ml lipopolysaccharide (LPS E. coli, Sigma) respectively for 0, 2, 8, 16, 24, 48 and 72 hours before they were harvested for β-galactosidase activity assay and real-time RT-PCR GFAP assay.
Total RNA was reverse transcribed to cDNA using Taqman's reverse transcription reagent (Cat. #N8O8-0234A total of 400 ng of RNA in 7.7 μl nuclease-free water was added to 2 μl 10× reverse transcriptase buffer, 4.4 μl 25 mM magnesium chloride, 4 μl deoxyNTP mixtures, 1 μl random hexamers, 0.4 μl RNase inhibitor and 0.5 μl reverse transcriptase (50 U/μl) in a final reaction volume of 20 μl. The reaction was performed for 10 min at 25° C. (annealing), 30 min at 48° C. (cDNA synthesis) and 5 min at 95° C. (enzyme denaturation).
Real-time quantitative PCR was carried out with an ABI 7500 Real Time PCR System (Applied Biosystems, CA, USA). One microliter of sample cDNA was used in each PCR reaction, with the housekeeping β-actin gene as a reference for normalization. The primers and probes for rat β-actin and GFAP were purchased from Taqman's assay-on-demand database. […]
(§2) Relative quantitation of the target mRNA was calculated using the comparative threshold cycle (CT) methods as described in the User Bulletin #2 (ABI Prism 7700 Sequence Detection System). CT indicates the fractional cycle number at which the amount of amplified target reaches a fixed threshold within the linear phase of gene amplification. ΔCT, which reflects the difference between CT target and CT β-actin, is inversely correlated to the abundance of mRNA transcripts in the samples. ΔCT for each sample was normalized against control experiment or calibrator and expressed as ΔΔCT. Relative quantitation is given by 2^−ΔΔCT to express the up-regulation or down regulation of the target gene under the treatments compared to the control. Six independent experiments were performed for each data point and three ACT were measured for each experiment.
It was known that GFAP, along with desmin, SMAA, and vimentin, was expressed in the clonal T6 cells (Vogel et al. (2000), J Lipid Res. 41(6):882). […] In order to investigate how the endogenous GFAP expression is regulated by TGF-β1 in the T6/lacZ/C1 cells during different time course, we quantified rat GFAP mRNA level using a real-time RT-PCR method. […] Total RNA was isolated from different cells and quantified as described in Materials and Methods, and the results were depicted in FIG. 11.

The test system of data set [2] is 2.2 kb hGFAP-lacZ transgene in T6/lacZ/C1 cells. Nature of the data set: quantitative solution assay of β-galactosidase activity in T6/lacZ/C1 cells. It is filed as cell-based, rat. The protocol:
To quantify the β-galactosidase activity in cell extracts reported in FIGS. 4 to 10, an enzyme assay kit (E2000, Promega, Wis., USA) was used to measure the specific activity of P-galactosidase, according to the manufacturer's instructions in a 96-well format. Briefly, the cells were washed twice with 1×PBS buffer (pH7.4), lysed for 15 minutes at room temperature with the reporter lysis buffer, and harvested using a cell scraper. The total cell extracts were appropriately diluted (5-10 fold), and assayed for the enzyme activity. The specific β-galactosidase activity was expressed in milliunit per milliliter (mU/ml) using a standard curve established from the β-galactosidase standard (provided with the kit). The protein concentration was measured with a BCA protein assay kit (Pierce, Ill., USA), and used to further convert the specific β-galactosidase activity from mU/ml to mU/μg total cellular protein. Six independent experiments were performed for each time and concentration data point.
as §1
To quantify specific transgene response to TGF-β1, we first set up an experiment to assess possible effects that serum concentration and culture duration may have on the transgene expression. T6/lacZ/C1 cells were initially grown in DMEM with high serum (10% FBS), and then some of the cells were starved with a DMEM with low serum (0.5% FBS) for 12 hours prior to the addition of TGF-β1 (1 ng/ml). After incubation for various times (0, 2, 8, 24, 48 and 72 hours), cells were harvested for β-galactosidase activity assay. […] After 72 hours, the level slipped to 58% of the value at 0 hour (P<0.001). The assay results were depicted in FIG. 8.
To further dissect the TGF-β1 contribution to the transgene induction, we treated T6/lacZ/C1 cells grown in low serum with various concentrations of TGF-β1 (0, 0.1, 1, 10 ng/ml) and assayed the enzymatic activity for three time points (24, 48 and 72 hours). The assay results were plotted in FIG. 9. […] When the non-treatment groups were normalized to 1 and the magnitude of induction were plotted for the 10 ng/ml treatment groups at all three time points (FIG. 10), a trend of increasing induction with time was apparent.

The test system of data set [3] is GFAP-lacZ expression in T6/lacZ/C1 cells. Nature of the data set: X-gal staining of T6/lacZ/C1 cells treated with TGF-β1, PDGF-BB and LPS. The class given is cell-based, rat. The following applies: 0.1 to 10 ng/ml, full DMEM, 72 hours, X-gal one hour. The protocol:
A lacZ reporter assay kit for cell staining (InvivoGen, CA, USA) was used to detect the reporter gene activity in both stable and transient transfectants. Development of the blue end product was monitored at different time intervals (15, 30, 60, 90, and 120 minutes). The staining results were documented with a digital camera (DP12) attached to an Olympus inverted bright field microscope (IX51).
To determine possible induction of GFAP-lacZ expression by molecules with pro-fibrotic and proinflammatory properties in activated HSC the T6/lacZ/C1 cells were treated with TGF-β1, PDGF-BB and LPS respectively at various concentrations (0, 0.1, 1 and 10 ng/ml) in the full DMEM medium for 72 hours. The cells were then stained with X-gal for one hour and photographed. […] In order to obtain truly quantitative data, a solution assay was employed to measure possible up-regulation of β-galactosidase activity by TGF-β1 in experiments below.

Data set [4] has as its system endogenous rat GFAP mRNA. Nature of the data set: real-time RT-PCR for endogenous rat GFAP mRNA in T6/GFAP-lacZ cells. It is filed as cell-based. The following applies: 10 ng/ml PDGF-BB, 24 hours, low serum DMEM. The protocol: (§3) Cells were initially seeded in 12-well plates in DMEM supplemented with 10% FBS and weaned to a low serum DMEM (0.5% FBS) at a confluence of 70-80% for 12 hours of adaptation. Cells were then incubated with different concentrations of compounds for various amounts of time before being assayed for β-galactosidase activity and GFAP mRNA. For compound attenuation studies, cells were treated with a pro-fibrotic cytokine (TGF-β1 or PDGF-BB) either sequentially or concurrently with a compound (EGCG or genistein). In the sequential scheme, cells were first treated with a cytokine for 1-3 days, then the cytokine-containing culture medium was replaced with a fresh medium containing a particular compound only for various times. Details of the cytokine/compound treatments can be found in the individual figure legends.
Total RNA was reverse-transcribed to cDNA using Taqman's reverse transcription reagent (Applied Biosystems, CA, USA). A total of 200 ng of RNA in 7.7 μl of nuclease-free water was added to 2 μl 10× reverse transcriptase buffer, 4.4 μl 25 mM magnesium chloride, 4 μl deoxyNTP mixtures, 1 μl random hexamers, 0.4 μl RNase inhibitor and 0.5 μl reverse transcriptase (50 U/μl) in a final reaction volume of 20 μl. The reaction was performed for 10 min at 25° C. (annealing), 30 min at 48° C. (cDNA synthesis) and 5 min at 95° C. (enzyme denaturation).
Real-time quantitative PCR was carried out with an ABI 7500 Fast Real-time PCR System (Applied Biosystems, CA, USA). Two micro liters of sample cDNA were used in each PCR reaction, with β-actin gene as a reference for normalization. The primers and probes for rat β-actin and GFAP were ordered from Taqman's assay-on-demand database. The PCR reaction was performed under a default profile consisting of 95° C. for 20 seconds (enzyme denaturation) and 40 cycles of amplification (denaturation 3 seconds, annealing and extension 30 seconds). Some of the real-time RT-PCR reactions were separated on an agarose gel for visual confirmation of discrete products (data not shown).
as §2, with “samples. ACT” for “samples. ΔCT”, “or down-regulation” for “or down regulation”, “control.” for “control. Six independent experiments were performed for each data point and three ACT were measured for each experiment.”
Background: Real-time PCR tracks product formation cycle by cycle.

A further data set relates to GFAP-lacZ transgene. Nature of the data set: chemiluminescent β-galactosidase activity assay of GFAP-lacZ transgene expression in T6/GFAP-lacZ cells. The conditions noted are these: 10 ng/ml PDGF-BB, 48 hours, low serum DMEM. The class given is cell-based, rat. The protocol:
as §3
A lacZ reporter assay kit for cell staining (InvivoGen, CA, USA) was used to detect the reporter gene activity in T6/GFAP-lacZ cells treated with EGCG or genistein. The staining results were documented with a digital camera (DP12) attached to an Olympus inverted bright field microscope (IX51) after development for 60 min. For quantification, the β-galactosidase activity in cell extracts was measured using a chemiluminescent assay kit (Roche, Mannheim, Germany) in a 96-well plate format, according to the manufacturer's instructions. Briefly, cells were washed twice with ice-cold 1×PBS (pH 7.4), lysed for 30 minutes at room temperature with the lysis buffer, and supernatant was collected for assays. Protein concentration was determined with a BCA protein assay kit (Pierce, Ill., USA). Specific β-galactosidase activity was obtained by normalizing against total cellular protein content.

Where [5] appears, read: 10 ng/ml TGF-β1, low serum, 72 hours.

Regarding “TGF-β1: recombinant human transforming growth factor-β1, pro-fibrotic cytokine (BioVision)”, the “GFAP mRNA level relative to basal level at 0 hour (normalized to 1)” value came to 0.5 fold in the data set with endogenous rat GFAP mRNA [1] (1 ng/ml TGF-β1, 16 hour); 7 fold in the data set on endogenous rat GFAP mRNA [1] (1 ng/ml TGF-β1, 48 hours); 8.5 fold in the data set on endogenous rat GFAP mRNA [1] (1 ng/ml TGF-β1, 72 hours). The “GFAP mRNA level relative to basal level” value in the data set with endogenous rat GFAP mRNA [1] (1 ng/ml TGF-β1, within the first 24 hours (except 16 hour)) was “remained steady”. The “specific β-galactosidase activity” value in data set [2] (1 ng/ml TGF-β1, 0.5% FBS, 24 hour (peak)) worked out at 0.52 mU/μg. Also, the “transgene expression level relative to 0 hour” value in data set [2] (1 ng/ml TGF-β1, 0.5% FBS, 48 hours) is on record as “dropped to the same level as at 0 hour”. Also, the “transgene expression level, % of the value at 0 hour” value in data set [2] (1 ng/ml TGF-β1, 0.5% FBS, 72 hours) was 58%. For the same molecule, in data set [2] (10 ng/ml TGF-β1, low serum, 24, 48 and 72 hours), the “induction of β-galactosidase activity” value is “Significant induction”. Also, the “absolute enzymatic (β-galactosidase) activity” value in data set [2] (setting [5]) turned out to be 0.43 mU/μg. For the same molecule, the “magnitude of induction of β-galactosidase activity vs non-treatment group (normalized to 1)” value in data set [2] (setting [5]) was “nearly two fold”. For the same molecule, the “X-gal blue staining compared to the untreated” value in data set [3] is recorded as “more intense blue staining”.

B1: PDGF-BB: recombinant human platelet derived growth factor-BB, pro-fibrotic cytokine (BioVision) (protein, UniProt P01127 82-190, looked up)
Platelet-derived growth …: SLGSLTIAEPAMIAECKTRTEVFEISRRLIDRTNANFLVWPPCVEVQRCSGCCNNRNVQCRPTQVQLRPVQVRKIEIVRKKPIFKKATVTLEDHLACKCETVAAARPVT
As to B1, the “induction of endogenous GFAP” value in the data set with endogenous rat GFAP mRNA [4] stood at 53%. Further, the “induction of transgenic GFAP-lacZ expression” value with GFAP-lacZ transgene was 24%. The “X-gal blue staining compared to the untreated” value in data set [3] was “less pronounced response”.
